Laboratory results reported in US4866065A, “Imidazothienopyrimidines useful in psychopharmaceutical preparations” (A/S Ferrosan, priority 1987, dated 1989).

Tested on: benzodiazepine receptors
Experiment: in vivo displacement of 3H-flunitrazepam specific binding to brain benzodiazepine receptors in mice
Parameters: species or system mice (female, NMR)
Settings: intraperitoneal, test substance 15 min before 3H-FNM i.v., sacrificed 20 min after 3H-FNM, forebrain
Text: The pharmaceutical properties of the compounds of the invention can be illustrated by determining their capability for displacing radioactive labelled flunitrazepam from benzodiazepine receptors.
The displacement activity of the compounds of the invention may be found by determining the ED50 value. The ED50 value represents the dose (mg/kg) of a test substance which causes the specific binding of flunitrazepam to benzodiazepine receptors in a living brain to be reduced to 50% of the oontrol value.
Such an in vivo test is carried out as follows:
Principle. Twenty minutes after a dose of ^3 H-flunitrazepam (^3 H-FNM) (200 μCi/kg, i.v.) the amount of specific ^3 H-FNM binding to brain benzodiazepine receptors has reached its maximal value.
Test procedure. Suspensions of test substances (2 mg/ml) are prepared in 5% Duphasol-X (TM Duphar, castor oil-ethylene oxide derivative for emulsifying and solubilizing Oil and other water-insoluble substances) by sonification for 10 min using a Branson B15 microtip ultrasonifier (setting 7). Groups of three mice (female, NMR, 18-22 grams) are injected with the test substance at 100 mg/kg intraperitoneally. Fifteen minutes after test substance administration the mice are challenged with 4 μCi intravenously of ^3 H-FNM (70-90 Ci/mole) in 200 μl physiological saline. Twenty minutes after ^3 H-FNM administration mice are sacrificed by decapitation, the forebrains rapidly excised (within 30 sec) and homogenized in 12 ml of icecold 25 mM KH2 PO4, pH 7.1, using an Ultra-Turrax homogenizer fitted with an N 10 shaft. […] The amounts of radioactivity on the filters are determined by conventional scintillation counting. […]
Results. The ED50 value is determined from dose response curves. If only one dose of test substance is administered the ED50 value is calculated as follows, provided that the inhibition of specific binding is within the range of 25-75%: [formula] where Co is specific binding in controls and Cx is specific binding in mice treated with test substance.

Structure (SMILES) | ED50 (dose reducing specific binding of flunitrazepam to benzodiazepine receptors in living brain to 50% of control)
Cn1c(=O)c2sccc2n2cnc(-c3noc(C4CC4)n3)c12 [Compound 3, 3-(5-cyclopropyl-1,2,4-oxadiazol-3-yl)-4,5-dihydro-4-methyl-5-oxo-imidazo[1,5-a]thieno[2,3-e]pyrimidine] | 0.6 mg/kg
Cn1c(=O)c2sccc2n2cnc(-c3nc(C4CC4)no3)c12 [Compound 8, 3-(3-cyclopropyl-1,2,4-oxadiazol-5-yl)-4,5-dihydro-4-methyl-5-oxo-imidazo[1,5-a]thieno[2,3-e]pyrimidine] | 0.9 mg/kg
Cc1noc(-c2ncn3c4ccsc4c(=O)n(C)c23)n1 [Compound 10, 4,5-dihydro-4-methyl-3-(3-methyl-1,2,4-oxadiazol-5-yl)-5-oxo-imidazo[1,5-a]thieno[2,3-e]pyrimidine] | 1.8 mg/kg
